Assay [1] concerns the target T1, EGF receptor partially purified by A431 cell line (Homo sapiens, UniProt P00533).
T1 construct: A431 cell membrane fraction, which was used for the assay as an enzyme source of partially purified EGF receptor; endogenous in cells; host or cells: A431 human epidermoid cancer cells (membrane fraction, 100,000 G pellet)
In words: EGFR tyrosine kinase inhibitory action (A431 cell membrane fraction, 32P-ATP, Angiotensin II substrate). The class given is biochemical. The settings on record: EGF-stimulated, 10 μM ATP, in ice for 30 min. As for the experimental part: Specific method was as follows.
A431 cells were cultured in Dulbecco's Modified Eagle Medium (DMEM) containing 10% of fetal calf serum (FBS) at 37° C. under 5% carbon dioxide gas, and homogenized in a solution containing 10 mM N-2-hydroxyethylpiperazino-N′-2-ethanesulfonic acid (Hepes) buffer (pH 7.4), 0.25 M sucrose and 0.1 mM EDTA, and separated by centrifugation at 3000 G for 5 min. The supernatant was separated by centrifugation at 100,000 G for 30 min to separate A431 cell membrane fraction, which was used for the assay as an enzyme source of partially purified EGF receptor.
The reaction was carried out in ice for 30 min and 6 μL of 10 mg/mL bovine serum albumin and 25 μL of 20% trichloroacetic acid were added to stop the reaction. The reaction mixture was left in ice as it was for 30 min.
The mixture was centrifuged at 5000 G for 2 min and the supernatant was sampled by 40 μL and adsorbed on P81 phosphocellulose paper. […] This rinsing was repeated 4 times. The paper was taken out, the ^32P count was measured on a liquid scintillation counter and this value was taken as A.
Simultaneously, a reaction without the test substance and a reaction without the test substance and EGF were also measured and the counts thereof were taken as B and C, respectively.
The tyrosine kinase inhibitory rate can be determined from the following formula based on these values. Percent Inhibition (%)=100−{(A−C)/(B−C)}×100

Assay [2] deals with T2, mutated c-erbB2 (HER2) constitutively activated, in transformed NIH3T3 cells (A4 cell) (Homo sapiens, UniProt P04626, V659E).
T2 construct: expressed in transfected cells; host or cells: NIH3T3 mouse fibroblast cell line (A4 cell)
T2 sequence (P04626 23-1255 V659E): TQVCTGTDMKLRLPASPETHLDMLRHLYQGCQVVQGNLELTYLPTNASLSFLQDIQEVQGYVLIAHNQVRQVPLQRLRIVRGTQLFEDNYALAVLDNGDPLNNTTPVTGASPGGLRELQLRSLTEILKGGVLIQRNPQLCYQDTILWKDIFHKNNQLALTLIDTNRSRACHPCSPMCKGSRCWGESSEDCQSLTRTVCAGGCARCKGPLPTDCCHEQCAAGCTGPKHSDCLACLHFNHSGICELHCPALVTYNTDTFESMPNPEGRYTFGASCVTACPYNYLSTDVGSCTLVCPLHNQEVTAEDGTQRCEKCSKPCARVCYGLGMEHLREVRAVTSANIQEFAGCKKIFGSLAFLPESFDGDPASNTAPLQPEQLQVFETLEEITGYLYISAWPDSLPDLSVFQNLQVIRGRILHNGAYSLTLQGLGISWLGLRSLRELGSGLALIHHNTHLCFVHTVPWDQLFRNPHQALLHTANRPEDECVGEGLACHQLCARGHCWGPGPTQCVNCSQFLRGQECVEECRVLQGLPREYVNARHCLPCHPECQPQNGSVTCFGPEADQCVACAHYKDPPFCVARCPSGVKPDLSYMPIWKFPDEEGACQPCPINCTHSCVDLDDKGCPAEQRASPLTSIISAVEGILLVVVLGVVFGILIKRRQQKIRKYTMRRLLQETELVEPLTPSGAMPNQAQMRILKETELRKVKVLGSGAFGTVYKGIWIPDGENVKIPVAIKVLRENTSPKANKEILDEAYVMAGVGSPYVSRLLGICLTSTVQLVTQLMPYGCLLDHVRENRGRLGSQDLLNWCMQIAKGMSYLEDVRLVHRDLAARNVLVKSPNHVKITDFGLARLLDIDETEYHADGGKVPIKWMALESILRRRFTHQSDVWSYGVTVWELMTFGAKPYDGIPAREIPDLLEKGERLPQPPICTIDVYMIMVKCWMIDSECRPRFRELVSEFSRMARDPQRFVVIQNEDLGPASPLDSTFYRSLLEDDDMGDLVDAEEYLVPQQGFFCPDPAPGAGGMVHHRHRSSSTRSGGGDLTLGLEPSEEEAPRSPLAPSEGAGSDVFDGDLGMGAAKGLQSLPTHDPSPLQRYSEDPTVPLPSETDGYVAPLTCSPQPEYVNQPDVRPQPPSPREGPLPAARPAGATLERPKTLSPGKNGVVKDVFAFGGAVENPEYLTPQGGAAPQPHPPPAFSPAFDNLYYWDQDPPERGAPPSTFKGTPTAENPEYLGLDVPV
In words: HER2 tyrosine kinase inhibitory action (phosphotyrosine Western blotting in A4 cells). It is filed as cell-based. The settings on record: 2 hrs, signal without compound = 100%; for remaining activity at 0.1 µM: read-out: % of control at 0.1 μM (phosphorylation signal); for remaining activity at 1 µM: read-out: % of control at 1 μM (phosphorylation signal). The procedure:
(2) HER2 Tyrosine Kinase Inhibitory Action (Method)
As the cells, NIH3T3 mouse fibroblast cell line (provided by Institute of Development, Aging and Cancer, Tohoku University Cell Resource Center for Biomedical Research) transformed with mutated c-erbB2 constitutively activated by substituting valine at position 659 for glutamic acid was used. In the following, the cell is referred to as A4 cell. This cell line was cultured in DMEM/F12 mixed medium (hereinafter a complete medium) supplemented with 10% FBS in a plastic dish at 37° C., 5% CO2, 95% air.
The A4 cells suspended in a complete medium were seeded in a 12-well plate at 3×10^5/well, and confluent cells were cultured with the compound at 37° C. for 2 hrs. The cells were washed once with PBS, re-suspended in a lysis buffer (60 mM Tris (pH 6.8), 2% SDS, 10% glycerol, 5% beta-mercaptoethanol, 0.001% bromophenol blue), treated by ultrasonication and applied to Western blotting as a whole cell lysate.
The whole cell lysate (protein amount 25 μg) was applied to 7.5% SDS-polyacrylamide electrophoresis and transferred to PVDF membrane. The membrane was blocked and incubated with antiphosphotyrosine mouse monoclonal antibody in Tris buffer containing 0.1% Tween 20 and then treated with HRP-labeled antimouse second antibody. The membrane was developed with a chemiluminescent reagent. The chemiluminescence was taken with a lumino CCD camera and recorded electronically.

T1 sequence (P00533 25-1210): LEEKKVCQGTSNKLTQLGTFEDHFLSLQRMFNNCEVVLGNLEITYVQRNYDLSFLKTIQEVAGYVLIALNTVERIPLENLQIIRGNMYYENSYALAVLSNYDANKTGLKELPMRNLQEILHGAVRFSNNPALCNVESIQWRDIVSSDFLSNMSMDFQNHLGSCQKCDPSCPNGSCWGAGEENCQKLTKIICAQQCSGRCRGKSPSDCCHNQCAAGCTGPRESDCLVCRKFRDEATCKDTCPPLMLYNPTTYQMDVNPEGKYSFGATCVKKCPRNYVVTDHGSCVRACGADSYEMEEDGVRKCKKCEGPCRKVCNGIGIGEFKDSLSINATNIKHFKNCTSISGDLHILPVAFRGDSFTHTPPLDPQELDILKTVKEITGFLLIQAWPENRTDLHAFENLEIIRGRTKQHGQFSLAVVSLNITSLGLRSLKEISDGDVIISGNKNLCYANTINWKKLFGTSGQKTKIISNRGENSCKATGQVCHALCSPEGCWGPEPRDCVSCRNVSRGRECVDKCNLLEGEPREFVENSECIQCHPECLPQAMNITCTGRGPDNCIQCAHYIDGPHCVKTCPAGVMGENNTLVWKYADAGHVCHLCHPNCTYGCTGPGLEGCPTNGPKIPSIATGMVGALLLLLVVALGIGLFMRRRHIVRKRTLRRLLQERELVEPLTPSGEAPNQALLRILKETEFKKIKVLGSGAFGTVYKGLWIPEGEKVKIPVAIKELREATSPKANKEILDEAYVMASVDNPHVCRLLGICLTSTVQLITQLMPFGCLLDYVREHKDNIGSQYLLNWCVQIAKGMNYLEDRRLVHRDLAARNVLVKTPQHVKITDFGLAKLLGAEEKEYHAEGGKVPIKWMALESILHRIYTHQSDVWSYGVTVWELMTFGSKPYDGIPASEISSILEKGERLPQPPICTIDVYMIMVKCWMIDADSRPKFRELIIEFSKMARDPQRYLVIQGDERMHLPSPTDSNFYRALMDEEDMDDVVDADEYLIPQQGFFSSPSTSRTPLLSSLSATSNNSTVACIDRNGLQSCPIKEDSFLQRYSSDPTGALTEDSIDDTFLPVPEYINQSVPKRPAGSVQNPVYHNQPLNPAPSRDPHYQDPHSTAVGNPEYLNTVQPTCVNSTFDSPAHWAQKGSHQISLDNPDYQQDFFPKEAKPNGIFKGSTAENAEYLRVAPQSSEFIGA

Turning to `COc1cc2ncnc(Nc3ccc(F)c(Cl)c3)c2cc1C#CC(C)(C)N1CCN(CC#N)CC1` [1bb], the IC50 in assay [1] worked out at 1.3 nM.

`C=CC(=O)Nc1cc2c(Nc3ccc(F)c(Cl)c3)ncnc2cc1C#CC(C)(C)N1CCN(CC#N)CC1` [1c] came in with an IC50 in assay [1] of 3.9 nM.

`CCOc1cc2ncnc(Nc3ccc(F)c(Cl)c3)c2cc1C#CC(C)(C)N1CCCCC1` [1bn] came in with an IC50 in assay [1] of 3.5 nM.

With `C#Cc1cccc(Nc2ncnc3cc(OCC)c(C#CC(C)(C)N4CCN(C)CC4)cc23)c1` [1bam], in assay [1], the IC50 worked out at 3.3 nM.

In assay [1], `COc1cc2c(Nc3ccc(F)c(Cl)c3)ncnc2cc1C#CC(C)(C)N1CCN(CC#N)CC1` [1bj] displayed an IC50 of 2.9 nM.

Turning to `C#Cc1cccc(Nc2ncnc3cc(OCC)c(C#CC(C)(C)N4CCOCC4)cc23)c1` [1baj], half-maximal inhibition in assay [1] (IC50) was put at 3.3 nM.

With `C#Cc1cccc(Nc2ncnc3cc(OCC)c(C#CC(C)(C)N(C)CCN(C)C)cc23)c1` [1ban], it took 2.6 nM to reach half-maximal inhibition in assay [1] (IC50).

Consider `CCOc1cc2ncnc(Nc3ccc(F)c(Cl)c3)c2cc1C#CC(C)(C)N(C)CCOC` [1bl], for which, in assay [1], 2.2 nM corresponded to half-maximal inhibition (IC50).

`CCOc1cc2ncnc(Nc3ccc(F)c(Cl)c3)c2cc1C#CC(C)(C)NCCN1CCOCC1` [1bx]: the IC50 in assay [1] stood at 3.4 nM.

Take `CCOc1cc2ncnc(Nc3ccc(F)c(Cl)c3)c2cc1C#CC(C)(C)N1CCN(C)CC1` [1bp]: the IC50 in assay [1] stood at 2.1 nM.

The compound `CCOc1cc2ncnc(Nc3ccc(F)c(Cl)c3)c2cc1C#CC(C)(C)N1CCN(CC#N)CC1` [1bs] displayed an IC50 in assay [1] of 1.1 nM.

The compound `CCOc1cc2ncnc(Nc3ccc(F)c(Cl)c3)c2cc1C#CC(C)(C)N1CCOCC1` [1bk] registered an IC50 in assay [1] of 2.1 nM.

`CCN1CCN(C(C)(C)C#Cc2cc3ncnc(Nc4ccc(F)c(Cl)c4)c3cc2NS(C)(=O)=O)CC1` [1ch] came in with an IC50 in assay [1] of 2.6 nM.

In assay [1], `CN1CCN(C(C)(C)C#Cc2cc3ncnc(Nc4ccc(F)c(Cl)c4)c3cc2NS(C)(=O)=O)CC1` [1cg] displayed an IC50 of 2.1 nM.

`CCOc1cc2ncnc(Nc3ccc(F)c(Cl)c3)c2cc1C#CC1(N2CCN(C)CC2)CCCCC1` [1bt] registered an IC50 in assay [1] of 5 nM.

In assay [1], `CN1CCN(C2(C#Cc3cc4ncnc(Nc5ccc(F)c(Cl)c5)c4cc3NS(C)(=O)=O)CCCCC2)CC1` [1cm] yielded an IC50 of 5.2 nM.

Regarding `CCOc1cc2ncnc(Nc3ccc(F)c(Cl)c3)c2cc1C#CC(C)(C)N(C)CCN(C)C` [1bo], inhibition in assay [1] was half-maximal at 2.2 nM (IC50).

As to `CCOc1cc2ncnc(Nc3ccc(F)c(Cl)c3)c2cc1C#CC(C)(C)N1CCN(S(C)(=O)=O)CC1` [1bad], the half-inhibitory concentration (IC50) in assay [1] came to 4 nM.

`CCOc1cc2ncnc(Nc3ccc(F)c(Cl)c3)c2cc1C#CC(C)(C)N(C)CCC#N` [1bm] registered an IC50 in assay [1] of 2.8 nM.

Regarding `CCOc1cc2ncnc(Nc3ccc(F)c(Cl)c3)c2cc1C#CC(C)(C)N1CCN(CCC#N)CC1` [1bae], the IC50 in assay [1] amounted to 2.5 nM.

For the compound `CCOc1cc2ncnc(Nc3ccc(F)c(Cl)c3)c2cc1C#CC(C)(C)N(CC)CCC(=O)OC` [1bab], in assay [1], the IC50 is 5.6 nM.

Turning to `CCN(CCC(=O)OC)C(C)(C)C#Cc1cc2ncnc(Nc3ccc(F)c(Cl)c3)c2cc1NS(C)(=O)=O` [1cu], the IC50 in assay [1] amounted to 5.5 nM.

`CCOc1cc2ncnc(Nc3ccc(F)c(Cl)c3)c2cc1C#CC(CC)(CC)N1CCN(C)CC1` [1bag]: in assay [1], the IC50 is 5.1 nM.

`CC(C)(C#Cc1cc2ncnc(Nc3ccc(F)c(Cl)c3)c2cc1NS(C)(=O)=O)N1CCN(CC#N)CC1` [1ca] registered an IC50 in assay [1] of 7.7 nM.

Compound `CC(C)(C#Cc1cc2ncnc(Nc3ccc(F)c(Cl)c3)c2cc1NS(C)(=O)=O)N1CCN(CCC#N)CC1` [1cw] had an IC50 in assay [1] of 2.5 nM.

In the case of `CCOc1cc2ncnc(Nc3ccc(F)c(Cl)c3)c2cc1C#CC(C)(C)N1CCC(OC)CC1` [1baf], the midpoint of inhibition in assay [1], the IC50, lay at 3.3 nM.

In assay [1], `CN1CCC(N(C)C(C)(C)C#Cc2cc3ncnc(Nc4ccc(F)c(Cl)c4)c3cc2NS(C)(=O)=O)CC1` [1cj] yielded an IC50 of 2.7 nM.

`C#Cc1cccc(Nc2ncnc3cc(OCC)c(C#CC(C)(C)N4CCN(CC#N)CC4)cc23)c1` [1bai] yielded an IC50 in assay [1] of 1.8 nM.

On to `C=CC(=O)Nc1cc2c(Nc3ccc(F)c(Cl)c3)ncnc2cc1C#CC(C)(C)N(C)C1CCN(C)CC1` [1ab], for which inhibition in assay [1] was half-maximal at 2.1 nM (IC50).

`CCOc1cc2ncnc(Nc3ccc(F)c(Cl)c3)c2cc1C#CC(C)(C)N1CCN(CC)CC1` [1bz] registered a half-inhibitory concentration (IC50) in assay [1] of 2.2 nM.

Take `CCOCCN(CCOCC)C(C)(C)C#Cc1cc2c(Nc3ccc(F)c(Cl)c3)ncnc2cc1OCC` [1bu]: the midpoint of inhibition in assay [1], the IC50, lay at 3.2 nM.

Take `CCCN1CCN(C(C)(C)C#Cc2cc3c(Nc4ccc(F)c(Cl)c4)ncnc3cc2OC)CC1` [1bd]: in assay [1], the IC50 is 3 nM.

Turning to `COCCN1CCN(C(C)(C)C#Cc2cc3ncnc(Nc4ccc(F)c(Cl)c4)c3cc2NS(C)(=O)=O)CC1` [1cv], the IC50 in assay [1] came out at 1.8 nM.

`CCOc1cc2ncnc(Nc3ccc(F)c(Cl)c3)c2cc1C#CC(C)(C)N1CCCN(C)CC1` [1bw]: the IC50 in assay [1] is 2.8 nM.

`CCOc1cc2ncnc(Nc3ccc(F)c(Cl)c3)c2cc1C#CC(C)(C)N1CCC(O)CC1` [1bv] gave an IC50 in assay [1] of 1.5 nM.

For the compound `CCC(C#Cc1cc2ncnc(Nc3ccc(F)c(Cl)c3)c2cc1NS(C)(=O)=O)(CC)N1CCN(C)CC1` [1cr], the midpoint of inhibition in assay [1], the IC50, lay at 3.4 nM.

`C=CC(=O)Nc1cc2c(Nc3ccc(F)c(Cl)c3)ncnc2cc1C#CCCN1CCN(C)CC1` [1ac]: in assay [1], the IC50 is less than 1 nM. Also, in assay [2], the remaining activity at 0.1 µM was found to be 9% and the remaining activity at 1 µM was 3%.

`CC(C)(C#Cc1cc2ncnc(Nc3ccc(F)c(Cl)c3)c2cc1NS(C)(=O)=O)N1CCCC1` [1cx] returned an IC50 in assay [1] of 2.8 nM.

On to `COc1cc2ncnc(Nc3ccc(F)c(Cl)c3)c2cc1C#CC(C)(C)N1CCN(CC(C)C)CC1` [1be], for which the IC50 in assay [1] was 8 nM.

`COc1cc2ncnc(Nc3ccc(F)c(Cl)c3)c2cc1C#CC(C)(C)N1CCN(C)CC1` [1ba] showed an IC50 in assay [1] of 1.1 nM.

Compound `C=CC(=O)Nc1cc2c(Nc3ccc(F)c(Cl)c3)ncnc2cc1C#CC(C)(C)N1CCNCC1` [1ap] came in with an IC50 in assay [1] of 2.4 nM. For the same compound, in assay [2], the remaining activity at 0.1 µM was found to be 74% and the remaining activity at 1 µM is 24%.

In assay [1], `C=CC(=O)Nc1cc2c(Nc3ccc(F)c(Cl)c3)ncnc2cc1C#CC(C)(C)N1CCOCC1` [1b] displayed an IC50 of 1.3 nM.

For `COc1cccc(Nc2ncnc3cc(OC)c(C#CC(C)(C)N4CCN(C)CC4)cc23)c1` [1bh], in assay [1], half-maximal inhibition (IC50) required 4.4 nM.

As to `CCOc1cc2ncnc(Nc3ccc(F)c(Cl)c3)c2cc1C#CC(C)(C)N1CCN(CCOC)CC1` [1bah], the IC50 in assay [1] turned out to be 2.6 nM.

`C=CC(=O)Nc1cc2c(Nc3ccc(F)c(Cl)c3)ncnc2cc1C#CC(C)(C)N1CCC(N(C)C)CC1` [1aa]: in assay [1], the IC50 was found to be 1.7 nM.

In assay [1], `COc1cc2c(Nc3ccc(F)c(Cl)c3)ncnc2cc1C#CC(C)(C)N1CCN(C)CC1` [1bi] displayed an IC50 of 1 nM.

In turn, `COc1cc2ncnc(Nc3ccc(F)c(Cl)c3)c2cc1/C=C/C(C)(C)N1CCN(C)CC1` [1bf] came in with an IC50 in assay [1] of 0.82 nM.

Consider `COc1cc2ncnc(Nc3ccc(F)c(Cl)c3)c2cc1C#CC(C)(C)N1CCNCC1` [1bc], for which the IC50 in assay [1] was 1.6 nM.

The compound `CCOc1cc2ncnc(Nc3ccc(F)c(Cl)c3)c2cc1C#CC(C)(C)N1CCN(C(C)=O)CC1` [1baa] gave an IC50 in assay [1] of 2.8 nM.

`CCOc1cc2ncnc(Nc3ccc(F)c(Cl)c3)c2cc1C#CC(C)(C)N(CC)CC` [1br] returned an IC50 in assay [1] of 5.7 nM.

These data come from patent publication US7294629B2, “Quinazoline derivatives” (Mitsubishi Pharma Corporation, priority 2001, dated 2007).
